Data from US20250205229A1, “DRUG FOR TREATING OR PREVENTING CHARCOT-MARIE-TOOTH DISEASE” (Kyoto University, priority 2022, published 2025).
Where a name gives a salt, the structure may show the parent alone.

Legend:
[1] = tested on: MFN2 gene; assay: Screening for MFN2 mRNA expression by qPCR in motor neurons derived from iPS cells of CMT patients with MFN2 mutations; assay type: cell-based, human; details: relative to vehicle (DMSO) defined as 1, motor neurons having the mutated MFN2 gene, compound added on day 10, RNA extracted on day 12
Source text: (§1) iPS cells established according to the method described in NPL 3 were used. The iPS cells were derived from peripheral-blood mononuclear cells (PBMCs) from CMT2 patients with MFN2 gene mutations (CMT1 (R94Q) and CMT2 (H128Y)) and healthy subjects without MFN2 mutations (Healthy). A feeder-free medium was used to perform maintenance culture of the iPS cells.
(§2) mRNA was extracted, and mRNA expression levels of MFN1 and MFN2 were quantified by qPCR.
(§3) The overview of the screening method is shown in the upper left of FIG. 2. Constructs expressing Lhx3, Ngn2, and Isl1 under tetracycline induction were introduced into the iPS cells using PiggyBac vectors, whereby stable lines were generated. Doxycycline was added to the iPS cells, and the iPS cells were cultured for 7 days using a neuro-differentiation medium to generate motor neurons (Imamura et al. Sci Transl Med 2017). […]
(§4) Screening was performed to search for existing drugs that increase the expression levels of the MIFN1 gene or MFN2 gene using the motor neurons having the mutated MFN2 gene. […] The expression levels of the MFN1 gene and the MFN2 gene are expressed as relative values with the mRNA expression levels thereof when a vehicle (DMSO) was administered being defined as 1.

[2] = tested on: MFN1 gene; assay: Screening for MFN1 mRNA expression by qPCR in motor neurons derived from iPS cells of CMT patients with MFN2 mutations; assay type: cell-based, human; details: relative to vehicle (DMSO) defined as 1, motor neurons having the mutated MFN2 gene, compound added on day 10, RNA extracted on day 12
Source text: as §1, §2, §3, §4

Structure (SMILES)	Relative expression level of the MFN2 gene [1]	Relative expression level of the MFN1 gene [2]
CC(C)N=c1cc2n(-c3ccc(Cl)cc3)c3ccccc3nc-2cc1Nc1ccc(Cl)cc1 [Clofazimine, N,5-bis(4-chlorophenyl)-3-propan-2-yliminophenazin-2-amine]	1.197	1.889
CC[C@@H](CO)NC(=O)[C@@H]1C=C2c3cccc4[nH]cc(c34)C[C@H]2N(C)C1 [Methylergometrine Maleate, (6aR,9R)—N—((S)-1-hydroxybutan-2-yl)-7-methyl-4,6,6a,7,8,9-hexahydroindolo[4,3-fg]quinoline-9-carboxamide maleate]	3.676	2.007
